Experimental data reported in PubChem BioAssay (NCI).
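Results reflect a 48-hour exposure of cells in 96-well plates to compound at five concentrations. TGI is the concentration that stops growth completely.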

Tests used:
Assay in all cases: growth of human tumour cells (NCI), 48 h
786-0 renal = tested on: 786-0 renal
A498 renal = tested on: A498 renal
A549 NSCLC = tested on: A549 NSCLC
ACHN renal = tested on: ACHN renal
BT-549 breast = tested on: BT-549 breast
CAKI-1 renal = tested on: CAKI-1 renal
CCRF-CEM leukemia = tested on: CCRF-CEM leukemia
COLO 205 colon = tested on: COLO 205 colon
DU-145 prostate = tested on: DU-145 prostate
EKVX NSCLC = tested on: EKVX NSCLC
HCC-2998 colon = tested on: HCC-2998 colon
HCT-116 colon = tested on: HCT-116 colon
HCT-15 colon = tested on: HCT-15 colon
HL-60(TB) leukemia = tested on: HL-60(TB) leukemia
HOP-62 NSCLC = tested on: HOP-62 NSCLC
HS 578T breast = tested on: HS 578T breast
HT29 colon = tested on: HT29 colon
KM12 colon = tested on: KM12 colon
M14 melanoma = tested on: M14 melanoma
MALME-3M melanoma = tested on: MALME-3M melanoma
MCF7 breast = tested on: MCF7 breast
MDA-MB-231 breast = tested on: MDA-MB-231 breast
MDA-MB-435 = tested on: MDA-MB-435
MDA-N = tested on: MDA-N
MOLT-4 leukemia = tested on: MOLT-4 leukemia
NCI-H226 lung = tested on: NCI-H226 lung
NCI-H23 lung = tested on: NCI-H23 lung
NCI-H460 lung = tested on: NCI-H460 lung
NCI-H522 lung = tested on: NCI-H522 lung
NCI/ADR-RES ovarian = tested on: NCI/ADR-RES ovarian
OVCAR-3 ovarian = tested on: OVCAR-3 ovarian
OVCAR-4 ovarian = tested on: OVCAR-4 ovarian
OVCAR-5 ovarian = tested on: OVCAR-5 ovarian
PC-3 prostate = tested on: PC-3 prostate
RPMI-8226 leukemia = tested on: RPMI-8226 leukemia
SF-268 CNS = tested on: SF-268 CNS
SF-295 CNS = tested on: SF-295 CNS
SF-539 CNS = tested on: SF-539 CNS
SK-MEL-2 melanoma = tested on: SK-MEL-2 melanoma
SK-MEL-28 melanoma = tested on: SK-MEL-28 melanoma
SK-MEL-5 melanoma = tested on: SK-MEL-5 melanoma
SK-OV-3 ovarian = tested on: SK-OV-3 ovarian
SN12C renal = tested on: SN12C renal
SNB-19 CNS = tested on: SNB-19 CNS
SNB-75 CNS = tested on: SNB-75 CNS
SW-620 colon = tested on: SW-620 colon
T-47D breast = tested on: T-47D breast
TK-10 renal = tested on: TK-10 renal
U251 CNS = tested on: U251 CNS
UACC-257 melanoma = tested on: UACC-257 melanoma
UACC-62 melanoma = tested on: UACC-62 melanoma
UO-31 renal = tested on: UO-31 renal
HOP-92 NSCLC = tested on: HOP-92 NSCLC
IGROV1 ovarian = tested on: IGROV1 ovarian
K-562 leukemia = tested on: K-562 leukemia
LOX IMVI melanoma = tested on: LOX IMVI melanoma
RXF 393 renal = tested on: RXF 393 renal
SR leukemia = tested on: SR leukemia

COc1cc2c(cc1OC)C1=C(C=O)c3ccc(OC)c(OC)c3C(O)N1CC2 (configuration not stated)
TGI (786-0 renal): > 100 µM
TGI (A498 renal): 72.5 µM
TGI (A549 NSCLC): > 100 µM
TGI (ACHN renal): > 100 µM
TGI (BT-549 breast): 70.1 µM
TGI (CAKI-1 renal): > 100 µM
TGI (CCRF-CEM leukemia): > 100 µM
TGI (COLO 205 colon): 64.1 µM
TGI (DU-145 prostate): 87.5 µM
TGI (EKVX NSCLC): > 100 µM
TGI (HCC-2998 colon): 31.7 µM
TGI (HCT-116 colon): > 100 µM
TGI (HCT-15 colon): > 100 µM
TGI (HL-60(TB) leukemia): 75.2 µM
TGI (HOP-62 NSCLC): > 100 µM
TGI (HS 578T breast): > 100 µM
TGI (HT29 colon): > 100 µM
TGI (KM12 colon): > 100 µM
TGI (M14 melanoma): 78.1 µM
TGI (MALME-3M melanoma): 53.9 µM
TGI (MCF7 breast): > 100 µM
TGI (MDA-MB-231 breast): 46.6 µM
TGI (MDA-MB-435): > 100 µM
TGI (MDA-N): > 100 µM
TGI (MOLT-4 leukemia): > 100 µM
TGI (NCI-H226 lung): > 100 µM
TGI (NCI-H23 lung): 57.1 µM
TGI (NCI-H460 lung): > 100 µM
TGI (NCI-H522 lung): 75.2 µM
TGI (NCI/ADR-RES ovarian): 79.6 µM
TGI (OVCAR-3 ovarian): > 100 µM
TGI (OVCAR-4 ovarian): > 100 µM
TGI (OVCAR-5 ovarian): > 100 µM
TGI (PC-3 prostate): 54 µM
TGI (RPMI-8226 leukemia): 38.3 µM
TGI (SF-268 CNS): > 100 µM
TGI (SF-295 CNS): > 100 µM
TGI (SF-539 CNS): 64.8 µM
TGI (SK-MEL-2 melanoma): 28.7 µM
TGI (SK-MEL-28 melanoma): > 100 µM
TGI (SK-MEL-5 melanoma): 29.7 µM
TGI (SK-OV-3 ovarian): > 100 µM
TGI (SN12C renal): > 100 µM
TGI (SNB-19 CNS): > 100 µM
TGI (SNB-75 CNS): 38.6 µM
TGI (SW-620 colon): > 100 µM
TGI (T-47D breast): 57.9 µM
TGI (TK-10 renal): 72.8 µM
TGI (U251 CNS): 45.9 µM
TGI (UACC-257 melanoma): 50 µM
TGI (UACC-62 melanoma): 29.4 µM
TGI (UO-31 renal): > 100 µM

CC[C@]1(c2ccc3c(c2)OCO3)C=[N+]([O-])O[C@H](OC2CCCC2(c2ccccc2)c2ccccc2)[C@@H]1OC(C)=O (some centres not stated)
TGI (786-0 renal): 3.77 µM
TGI (A498 renal): 2.94 µM
TGI (A549 NSCLC): 11.4 µM
TGI (ACHN renal): 9.75 µM
TGI (BT-549 breast): 8.43 µM
TGI (CAKI-1 renal): > 100 µM
TGI (CCRF-CEM leukemia): > 64.6 µM
TGI (COLO 205 colon): 5.07 µM
TGI (DU-145 prostate): 7.44 µM
TGI (EKVX NSCLC): 12.8 µM
TGI (HCC-2998 colon): 4.05 µM
TGI (HCT-116 colon): 3.67 µM
TGI (HCT-15 colon): 6.18 µM
TGI (HL-60(TB) leukemia): 12.1 µM
TGI (HOP-62 NSCLC): 5.38 µM
TGI (HOP-92 NSCLC): 76.1 µM
TGI (HS 578T breast): > 100 µM
TGI (HT29 colon): 3.78 µM
TGI (IGROV1 ovarian): > 21.5 µM
TGI (K-562 leukemia): > 100 µM
TGI (KM12 colon): 3.62 µM
TGI (LOX IMVI melanoma): > 22.4 µM
TGI (M14 melanoma): 4.84 µM
TGI (MCF7 breast): > 24.1 µM
TGI (MDA-MB-231 breast): > 21.7 µM
TGI (MDA-MB-435): 4.1 µM
TGI (MDA-N): > 30.2 µM
TGI (MOLT-4 leukemia): > 19.8 µM
TGI (NCI-H226 lung): 22.7 µM
TGI (NCI-H23 lung): 8.68 µM
TGI (NCI-H460 lung): 4.91 µM
TGI (NCI-H522 lung): 4.78 µM
TGI (NCI/ADR-RES ovarian): 4.88 µM
TGI (OVCAR-3 ovarian): 3.42 µM
TGI (OVCAR-4 ovarian): 10.1 µM
TGI (OVCAR-5 ovarian): > 28.3 µM
TGI (PC-3 prostate): 13.1 µM
TGI (RXF 393 renal): 2.63 µM
TGI (SF-268 CNS): 6.64 µM
TGI (SF-295 CNS): 3.2 µM
TGI (SF-539 CNS): > 100 µM
TGI (SK-MEL-2 melanoma): 5.73 µM
TGI (SK-MEL-5 melanoma): 3.54 µM
TGI (SK-OV-3 ovarian): 14.4 µM
TGI (SN12C renal): > 22.3 µM
TGI (SNB-19 CNS): 12.7 µM
TGI (SNB-75 CNS): 5.93 µM
TGI (SR leukemia): > 21.7 µM
TGI (SW-620 colon): > 100 µM
TGI (T-47D breast): 10.2 µM
TGI (TK-10 renal): 11.6 µM
TGI (U251 CNS): > 62.6 µM
TGI (UACC-257 melanoma): 7.62 µM
TGI (UACC-62 melanoma): 4.64 µM
TGI (UO-31 renal): 5.21 µM
